Converted amounts (≈) assume the structure as drawn.
Columns and labels:
[1] = test system: Polio 2; assay: microbe, parasite or virus in culture; format: cell-based, poliovirus; conditions: Enterovirus C, HeLa, read-out: Polio 2 MIC
[2] = test system: human rhinovirus (HRV) serotypes; assay: microbe, parasite or virus in culture; format: cell-based; conditions: for MIC50: read-out: Rhinovirus MIC50; for IC (MIC80 of serotype panel): read-out: Rhinovirus MIC80

| SMILES | MIC [1] [µg/mL] | MIC50 [2] [µg/mL] | IC (MIC80 of serotype panel) [2] [µg/mL] |
| --- | --- | --- | --- |
| Cc1cc(CCCCCOc2ccc(-c3nc(C)c(C)o3)cc2Cl)on1 [Example 134, 5-{5-[2-Chloro-4-(4,5-dimethyl-2-oxazolyl)phenoxy]pentyl}-3-methylisoxazole] | 1.9 (≈ 5.07 µM) | 0.29 (≈ 0.774 µM) | 0.5 |
| Cc1cc(CCCCCCCOc2ccc(C3=NCCCO3)cc2)on1 [94(c), 5,6-Dihydro-2-{4-[7-(3-methyl-5-isoxazolyl)heptyloxy]phenyl}-4H-1,3-oxazine] | 0.8 (≈ 2.24 µM) | 1.06 (≈ 2.97 µM) | 99 |
| CC(=O)c1cc(C2=NCCO2)ccc1OCCCCCc1cc(C)no1 [Example 63, 5-{5-[4-(4,5-Dihydro-2-oxazolyl)-2-acetylphenoxy]pentyl}-3-methylisoxazole] | 2.3 (≈ 6.45 µM) | 0.55 (≈ 1.54 µM) | 1.05 |
| Cc1cc(CCCCCOc2c(C)cc(C(=O)NCCCl)cc2Cl)on1 [154(b), 3-Chloro-N-(2-chloroethyl)-5-methyl-4 -{[5-(3-methyl-5-isoxazolyl)pentyl]oxy}benzamide] | 1.13 (≈ 2.83 µM) | 0.17 (≈ 0.426 µM) | 0.63 |
| COc1cc(C2=NCCO2)ccc1OCCCCCCCc1cc(C)no1 [41(b), 5-{7-[4-(4,5-Dihydro-2-oxazolyl)-2-methoxyphenoxy]heptyl}-3-methylisoxazole] | 1 (≈ 2.68 µM) | 0.55 (≈ 1.48 µM) | 4 |
| Cc1cc(CCC=CCOc2ccc(C3=NCCO3)cc2Cl)on1 [Example 68, 5-{5-[2-Chloro-4-(4,5-dihydro-2-oxazolyl)phenoxy]-3-pentenyl}-3-methylisoxazole] | 0.23 (≈ 0.663 µM) | 0.4 (≈ 1.15 µM) | 1 |
| Cc1cc(CCCCCOc2c(C)cc(-c3cnco3)cc2C)on1 [97(b), 5-{5-[2,6-Dimethyl-4-(5-oxazolyl)phenoxy]pentyl}-3-methylisoxazole] | 5.4 (≈ 15.9 µM) | 0.135 (≈ 0.397 µM) | 0.76 |
| Cc1cc(CCCCCOc2ccc(C3=NCCO3)cc2Br)on1 [Example 44, 5-{5-[2-Bromo-4-(4,5-dihydro-2-oxazolyl)phenoxy]pentyl}-3-methylisoxazole] | 0.3 (≈ 0.763 µM) | 0.08 (≈ 0.203 µM) | 0.54 |
| Cc1cc(CCCCCOc2ccc(C3=NCCO3)c(O)c2C)on1 [Example 80, 5-{5-[4-(4,5-Dihydro-2-oxazolyl)-3-hydroxy-2-methylphenoxy]pentyl}-3-methylisoxazole] | 0.11 (≈ 0.319 µM) | 0.13 (≈ 0.377 µM) | 0.27 |
| CCN(CC)Cc1cc(CCCCCCCOc2ccc(C3=NCCO3)cc2)on1 [Example 137, 5-{7-[4-(4,5-Dihydro-2-oxazolyl)phenoxy]heptyl}-3-(diethylaminomethyl)isoxazole] | 2 (≈ 4.84 µM) | 3.25 (≈ 7.87 µM) | 6.2 |
| Cc1cc(CCCCCOc2ccc(C3=NC(C)CO3)cc2Cl)on1 (stereo not drawn) [Example 32, 5-{5-[2-Chloro-4-(4,5-dihydro-4-methyl-2-oxazolyl)phenoxy]pentyl}-3-methylisoxazole] | 1.3 (≈ 3.58 µM) | 0.09 (≈ 0.248 µM) | 0.27 |
| Cc1cc(CCCCCCCOc2ccc(C3=NCCO3)c(Cl)c2)on1 [Example 50, 5-{7-[3-Chloro-4(4,5-dihydro-2-oxazolyl)phenoxy]heptyl}-3-methylisoxazole] | 0.7 (≈ 1.86 µM) | 5.05 (≈ 13.4 µM) | 99 |
| Cc1cc(CCCCCOc2ccc(C3=NCCO3)cc2[N+](=O)[O-])on1 [Example 53, 5-{5-[4-(4,5-Dihydro-2-oxazolyl)-2-nitrophenoxy]pentyl}-3-methylisoxazole] | 0.08 (≈ 0.223 µM) | 0.087 (≈ 0.242 µM) | 0.64 |
| Cc1noc(CCCCCCCOc2ccc(C3=NCCO3)cc2Cl)c1CO [Example 43] | 0.3 (≈ 0.737 µM) | 0.31 (≈ 0.762 µM) | 1 |
| Cc1cc(CCCCCOc2c(F)c(F)c(C3=NCCO3)c(F)c2F)on1 [161(c), 5-{5-[4-(4,5-Dihydro-2-oxazolyl)-2,3,5,6-tetrafluorophenoxy]pentyl}-3-methylisoxazole] | 0.05 (≈ 0.129 µM) | 0.25 (≈ 0.647 µM) | 3.5 |

From patent US4843087A (priority 1986, dated 1989)
